SMILES strings stand for the structures. Values after ≈ are worked out from the molar mass of the structure shown.

The test system of one assay is Escherichia coli ATCC 25922. As to the kind of experiment: ≥ marks a high value that may be exact or a test limit, other limits are often not marked, values filed in µg/mL are converted to µM.
As usually defined, the MIC is the lowest concentration that inhibits growth of the organism. Higher therefore signals weaker potency. `CC[C@H](C)[C@H](NC(=O)[C@H](CCCN=C(N)N)NC(=O)[C@H](CCCCN)NC(=O)[C@@H](NC(=O)[C@@H](NC(=O)CN)C(C)C)C(C)C)C(=O)N[C@@H](CCCCN)C(=O)N[C@H](C(=O)N[C@H](C(=O)N[C@H](C(N)=O)C(C)C)C(C)C)[C@@H](C)O` [GVVKRIKTVV]: the MIC was over 200 µM. On the same count and under the same terms, the result for `CC[C@H](C)[C@H](NC(=O)CN)C(=O)NCC(=O)N[C@@H](CCCN=C(N)N)C(=O)N[C@@H](CCCCN)C(=O)N[C@@H](Cc1ccccc1)C(=O)N[C@@H](CC(C)C)C(=O)NCC(=O)NCC(=O)N[C@H](C(=O)N[C@@H](CCCCN)C(=O)N[C@H](C(=O)N[C@H](C(=O)N[C@@H](Cc1ccccc1)C(=O)N[C@@H](CCCN=C(N)N)C(=O)N[C@@H](CS)C(=O)NCC(=O)N[C@H](C(=O)N[C@@H](CCCCN)C(=O)N[C@@H](CC(=O)O)C(=O)N[C@@H](Cc1ccccc1)C(=O)N[C@@H](C)C(=O)N[C@@H](CO)C(=O)N[C@@H](CCCCN)C(=O)N[C@@H](Cc1cnc[nH]1)C(=O)N[C@@H](CC(C)C)C(=O)N[C@@H](Cc1ccc(O)cc1)C(N)=O)C(C)C)[C@@H](C)O)[C@@H](C)O)C(C)C` [GIGRKFLGGVKTTFRCGVKDFASKHLY] reads 150 µM (≈ 448 µg/mL); that for `CC(C)[C@H](NC(=O)[C@@H]1CCCN1C(=O)[C@@H](N)Cc1ccccc1)C(=O)N[C@H](C(=O)N[C@@H](Cc1c[nH]c2ccccc12)C(=O)N[C@@H](CCCN=C(N)N)C(=O)N[C@H](C(=O)N[C@@H](CCCCN)C(=O)N[C@@H](Cc1c[nH]c2ccccc12)C(=O)N[C@@H](Cc1c[nH]c2ccccc12)C(=O)N[C@@H](CCCCN)C(=O)NCC(N)=O)[C@@H](C)O)[C@@H](C)O` [FPVTWRTKWWKG], 15.5 µM (≈ 24.7 µg/mL).

On to `CC(C)C[C@H](NC(=O)[C@H](Cc1ccccc1)NC(=O)[C@H](C)NC(=O)[C@H](Cc1c[nH]c2ccccc12)NC(=O)[C@H](Cc1c[nH]c2ccccc12)NC(=O)[C@H](Cc1c[nH]c2ccccc12)NC(=O)[C@@H]1CCCN1C(=O)[C@H](Cc1ccccc1)NC(=O)[C@H](CCCCN)NC(=O)[C@H](CCCCN)NC(=O)[C@@H](N)C(C)C)C(=O)N[C@@H](CCCCN)C(=O)N[C@@H](CCCCN)C(N)=O` [VKKFPWWWAFLKK], for which the MIC turned out to be 4 µM (≈ 7.05 µg/mL). This MIC is about 3.9-fold lower than that of the compound before. Turning to `NCCCC[C@H](NC(=O)[C@H](Cc1c[nH]c2ccccc12)NC(=O)[C@H](Cc1c[nH]c2ccccc12)NC(=O)[C@H](CCCCN)NC(=O)[C@H](CCCCN)NC(=O)[C@H](Cc1c[nH]c2ccccc12)NC(=O)[C@@H](N)CCCCN)C(=O)N[C@@H](Cc1c[nH]c2ccccc12)C(=O)N[C@@H](Cc1ccccc1)C(N)=O` [KWKKWWKWF], the minimal inhibitory concentration (MIC) came out at 2.81 µM (≈ 4 µg/mL). In the case of `CC[C@H](C)[C@H](NC(=O)CN)C(=O)N[C@@H](CCCCN)C(=O)N[C@@H](CC(=O)O)C(=O)N[C@@H](CC(C)C)C(=O)N[C@@H](CC(C)C)C(=O)N[C@@H](CCCCN)C(=O)NCC(=O)N[C@@H](C)C(=O)N[C@@H](C)C(=O)N[C@@H](CCCCN)C(=O)N[C@@H](C)C(=O)N[C@@H](CC(C)C)C(=O)N[C@H](C(=O)N[C@@H](CCCCN)C(=O)N[C@H](C(=O)N[C@H](C(=O)N[C@@H](CC(C)C)C(=O)N[C@@H](Cc1ccccc1)C(N)=O)C(C)C)[C@@H](C)O)C(C)C` [GIKDLLKGAAKALVKTVLF], the MIC was determined as 3 µM (≈ 5.95 µg/mL). The MIC values of the last two compounds are within 1.5-fold of each other.

Another assay relates to Staphylococcus aureus ATCC 25923. Described as above.
Regarding `CC(C)C[C@H](NC(=O)[C@@H](NC(=O)[C@H](CCCCN)NC(=O)CNC(=O)[C@H](Cc1ccccc1)NC(=O)[C@@H](NC(=O)[C@H](CC(=O)O)NC(=O)CNC(=O)[C@H](Cc1c[nH]c2ccccc12)NC(=O)CN)[C@@H](C)O)C(C)C)C(=O)N[C@@H](CCCCN)C(=O)N[C@@H](CC(N)=O)C(=O)N[C@@H](Cc1ccccc1)C(=O)N[C@@H](C)C(=O)N[C@@H](CCCCN)C(=O)N[C@H](C(=O)N[C@@H](C)C(=O)NCC(=O)N[C@H](C(=O)N[C@@H](CCCCN)C(=O)N[C@@H](C)C(=O)N[C@@H](C)C(=O)N[C@@H](CCCCN)C(=O)O)C(C)C)C(C)C` [GWGDTFGKVLKNFAKVAGVKAAK], the MIC was over 64 µM. The compound `CC(C)[C@H](NC(=O)[C@@H]1CCCN1C(=O)[C@@H](N)Cc1ccccc1)C(=O)N[C@H](C(=O)N[C@@H](Cc1c[nH]c2ccccc12)C(=O)N[C@@H](CCCN=C(N)N)C(=O)N[C@H](C(=O)N[C@@H](CCCCN)C(=O)N[C@@H](Cc1c[nH]c2ccccc12)C(=O)N[C@@H](Cc1c[nH]c2ccccc12)C(=O)N[C@@H](CCCCN)C(=O)NCC(N)=O)[C@@H](C)O)[C@@H](C)O` [FPVTWRTKWWKG] showed an MIC of over 3.1 µM.

(Values after DBAASP.)
